Where a name gives a salt, the structure may show the parent alone. A value given as a limit tells only on which side of the number the result lay.

The term melting point denotes the temperature of the solid-liquid transition.

In turn, `NCC1Oc2cc(F)cc(-c3ccc(Cl)cc3)c2O1` (stereo not shown) (as salt: hydrochloride) [Compound I-79, 1-[4-(4-Chloro-phenyl)-6-fluoro-1,3-benzodioxol-2-yl]methanamine] registered a melting point of 262 to 264 °C. `CNCC1COc2cccc(-c3ccccc3Cl)c2O1` (stereo not shown) (as salt: fumarate) [Compound I-21, {[8-(2-Chlorophenyl)-2,3-dihydro-1,4-benzodioxin-2-yl]methyl}methylamine] came in with a melting point of 174 to 175 °C. `COc1ccc(Cl)cc1-c1cc(Cl)cc2c1OC(CN)O2` (stereo not shown) (as salt: hydrochloride) [Compound I-94, [6-Chloro-4-(2-methoxy-5-chloro-phenyl)-benzo[1,3]dioxol-2-yl]-methylamine] yielded a melting point of 228 to 230 °C. Regarding `CN(C)CC1Oc2cc(F)cc(-c3ccccc3Cl)c2O1` (stereo not shown) (as salt: hydrochloride) [Compound I-89, 1-[4-(2-chlorophenyl)-6-fluoro-1,3-benzodioxol-2-yl]-N,N-dimethylmethanamine], the melting point fell in the range of 211 to 212 °C. Molecule `CN(C)CC1COc2cccc(-c3ccccc3Cl)c2O1` (stereo not shown) (as salt: fumarate) [Compound I-38, {[8-(2-Chlorophenyl)-2,3-dihydro-1,4-benzodioxin-2-yl]methyl}dimethylamine] came in with a melting point of 196 to 197 °C.

`CNCC1COc2cccc(-c3cc(C)ccc3C)c2O1` (stereo not shown) (as salt: fumarate) [Compound I-26, {[8-(2,5-Dimethylphenyl)-2,3-dihydro-1,4-benzodioxin-2-yl]methyl}methylamine] returned a melting point of 174 to 175 °C. For `NCC1Oc2cc(F)cc(-c3ccccc3C(F)(F)F)c2O1` (stereo not shown) (as salt: hydrochloride) [Compound I-82, 1-[4-(2-Trifluoromethyl-phenyl)-6-fluoro-1,3-benzodioxol-2-yl]methanamine] the value was 178 to 180 °C. Molecule `NCC1COc2cccc(-c3ccccc3F)c2O1` (stereo not shown) (as salt: fumarate) [Compound I-2, {[8-(2-Fluorophenyl)-2,3-dihydro-1,4-benzodioxin-2-yl]methyl}amine] gave a melting point of 188 to 190 °C. For the molecule `NC[C@@H]1Oc2cc(F)cc(-c3c(Cl)cccc3Cl)c2O1` (as salt: hydrochloride) [Compound I-86, 1-[(2R)-4-(2,6-dichlorophenyl)-6-fluoro-1,3-benzodioxol-2-yl]methanamine], the melting point was 206 to 208 °C. The value for `Clc1ccccc1-c1cccc2c1OC(CNC1CC1)CO2` (stereo not shown) (as salt: fumarate) [Compound I-43, N-{[8-(2-Chlorophenyl)-2,3-dihydro-1,4-benzodioxin-2yl]methyl}cyclopropanamine] was 148 to 149 °C; that for `NCC1COc2cccc(-c3cc(Cl)ccc3Cl)c2O1` (stereo not shown) (as salt: fumarate) [Compound I-8, {[8-(2,5-Dichlorophenyl)-2,3-dihydro-1,4-benzodioxin-2-yl]methyl}amine] was 206 to 207 °C; that for `COc1ccc(Cl)cc1-c1cc(Cl)cc2c1O[C@@H](CN)CO2` (as salt: hydrochloride) [Compound I-68, (2S)-[6-Chloro-8-(5-chloro-2-methoxy-phenyl)-2,3-dihydro-benzo[1,4]dioxin-2-yl]-methylamine] was 230 to 232 °C. As to `CNCC1COc2cccc(-c3cccc(Cl)c3Cl)c2O1` (stereo not shown) (as salt: fumarate) [Compound I-22, {[8-(2,3-Dichlorophenyl)-2,3-dihydro-1,4-benzodioxin-2-yl]methyl}methylamine], the melting point is 184 to 185 °C. `CNCC1COc2cccc(-c3cc(Cl)ccc3OC)c2O1` (stereo not shown) (as salt: fumarate) [Compound I-31, {[8-(5-Chloro-2-methoxyphenyl)-2,3-dihydro-1,4-benzodioxin-2-yl]methyl}methylamine] came in with a melting point of 172 to 173 °C.

The molecule `COc1cccc(-c2cccc3c2OC(CN)CO3)c1OC` (stereo not shown) (as salt: fumarate) [Compound I-9, {[8-(2,3-Dimethoxyphenyl)-2,3-dihydro-1,4-benzodioxin-2-yl]methyl}amine] displayed a melting point of 198 to 199 °C. `NC[C@H]1COc2ccc(F)c(-c3ccccc3Cl)c2O1` (as salt: hydrochloride) [Compound I-71, (2S)-[8-(2-Chloro-phenyl)-7-fluoro-2,3-dihydro-benzo[1,4]dioxin-2-yl]-methylamine] showed a melting point of 208 to 210 °C. Molecule `Cc1cc(Cl)ccc1-c1cc(Cl)cc2c1O[C@@H](CN)CO2` (as salt: hydrochloride) [Compound I-65, (2S)-[6-Chloro-8-(4-chloro-2-methyl-phenyl)-2,3-dihydro-benzo[1,4]dioxin-2-yl]-methylamine] came in with a melting point of 110 °C. Molecule `Clc1ccc(-c2cccc3c2OC(CNCC2CC2)CO3)c(Cl)c1` (stereo not shown) (as salt: fumarate) [Compound I-42, (Cyclopropylmethyl) {[8-(2,4-dichlorophenyl)-2,3-dihydro-1,4-benzodioxin-2-yl]methyl}amine] registered a melting point of 155 to 156 °C.

`NC[C@H]1COc2cc(Cl)cc(-c3ccccc3Cl)c2O1` (as salt: hydrochloride) [Compound I-58, (2S)-[6-Chloro-8-(2-chloro-phenyl)-2,3-dihydro-benzo[1,4]dioxin-2-yl]-methylamine] returned a melting point of 228 to 230 °C. As for `Clc1ccc(-c2cccc3c2OC(CNC2CCC2)CO3)c(Cl)c1` (stereo not shown) (as salt: fumarate) [Compound I-45, N-{[8-(2,4-Dichlorophenyl)-2,3-dihydro-1,4-benzodioxin-2-yl]methyl}cyclobutanamine], the melting point fell in the range of 204 to 205 °C. In turn, `C=CCNCC1COc2cccc(-c3ccc(Cl)cc3Cl)c2O1` (stereo not shown) (as salt: fumarate) [Compound I-40, N-{[8-(2,4-Dichlorophenyl)-2,3-dihydro-1,4-benzodioxin-2-yl]methyl}prop-2-en-1-amine] came in with a melting point of 167 to 168 °C. `NCC1COc2cccc(-c3ccccc3C(F)(F)F)c2O1` (stereo not shown) (as salt: fumarate) [Compound I-4, ({8-[2-(Trifluoromethyl)phenyl]-2,3-dihydro-1,4-benzodioxin-2-yl}methyl)amine] came in with a melting point of 208 to 209 °C.

Molecule `NCC1Oc2cc(F)cc(-c3cccc(Cl)c3)c2O1` (stereo not shown) (as salt: hydrochloride) [Compound I-78, 1-[4-(3-Chlorophenyl)-6-fluoro-1,3-benzodioxol-2-yl]methanamine] returned a melting point of 267 to 270 °C. As for `NCC1COc2cccc(-c3cc(F)ccc3F)c2O1` (stereo not shown) (as salt: fumarate) [Compound I-15, {[8-(2,5-Difluorophenyl)-2,3-dihydro-1,4-benzodioxin-2-yl]methyl}amine], the melting point was in the range of 189 to 190 °C.

As to `NCC1Oc2cc(F)cc(-c3cc(Cl)ccc3Cl)c2O1` (stereo not shown) (as salt: hydrochloride) [Compound I-81, 1-[4-(2,5-Dichloro-phenyl)-6-fluoro-1,3-benzodioxol-2-yl]methanamine], the melting point fell in the range of 204 to 205 °C. Consider `COc1ccccc1-c1cccc2c1O[C@@](C)(CN)CO2` (as salt: fumarate) [Compound I-52, {[(2S)-8-(2-Methoxyphenyl)-2-methyl-2,3-dihydro-1,4-benzodioxin-2-yl]methyl}amine], for which the melting point lay in the range of 128 to 131 °C. `COc1ccccc1-c1cc(Cl)cc2c1OC(CN)O2` (stereo not shown) (as salt: hydrochloride) [Compound I-92, [6-Chloro-4-(2-methoxy-phenyl)-benzo[1,3]dioxol-2-yl]-methylamine]: the melting point was 245 to 246 °C. Regarding `COc1ccccc1-c1cc(F)cc2c1OC(CN)O2` (stereo not shown) (as salt: hydrochloride) [Compound I-76, 1-[6-Fluoro-4-(2-methoxyphenyl)-1,3-benzodioxol-2-yl]methanamine], the melting point fell in the range of 184 to 186 °C. As for `NC[C@H]1COc2cc(F)cc(-c3c(Cl)cccc3Cl)c2O1` (as salt: salt) [Compound I-47, {[(2S)-8-(2,6-Dichlorophenyl)-6-fluoro-2,3-dihydro-1,4-benzodioxin-2-yl]methyl}amine], the melting point fell in the range of 165 to 167 °C. Turning to `NCC1COc2cccc(-c3ccc(F)cc3F)c2O1` (stereo not shown) (as salt: fumarate) [Compound I-14, {[8-(2,4-Difluorophenyl)-2,3-dihydro-1,4-benzodioxin-2-yl]methyl}amine], the melting point lay in the range of 183 to 184 °C.

As to `NC[C@H]1COc2ccc(Cl)c(-c3ccccc3Cl)c2O1` (as salt: hydrochloride) [Compound I-70, (2S)-[7-Chloro-8-(2-chloro-phenyl)-2,3-dihydro-benzo[1,4]dioxin-2-yl]-methylamine], the melting point was determined as 105 °C. For `CC(C)NCC1COc2cccc(-c3ccc(Cl)cc3Cl)c2O1` (stereo not shown) (as salt: fumarate) [Compound I-37, N-{[8-(2,4-Dichlorophenyl)-2,3-dihydro-1,4-benzodioxin-2-yl]methyl}propan-2-amine], the melting point is 222 to 223 °C. As to `NCC1Oc2cc(Cl)cc(-c3cc(F)ccc3F)c2O1` (stereo not shown) (as salt: hydrochloride) [Compound I-99, [6-Chloro-4-(2,5-difluoro-phenyl)-benzo[1,3]dioxol-2-yl]-methylamine], the melting point was > 250 °C.

As for `NC[C@H]1COc2cccc(-c3c(Cl)cccc3Cl)c2O1` (as salt: salt) [Compound I-46, {[(2S)-8-(2,6-Dichlorophenyl)-2,3-dihydro-1,4-benzodioxin-2-yl]methyl}amine], the melting point lay in the range of 165 to 167 °C. The value for `CNCC1COc2cccc(-c3ccccc3F)c2O1` (stereo not shown) (as salt: fumarate) [Compound I-18, {[8-(2-Fluorophenyl)-2,3-dihydro-1,4-benzodioxin-2-yl]methyl}methylamine] was 191 to 192 °C; that for `COc1ccc(Cl)cc1-c1cccc2c1OC(CN)CO2` (stereo not shown) (as salt: fumarate) [Compound I-16, {[8-(5-Chloro-2-methoxyphenyl)-2,3-dihydro-1,4-benzodioxin-2-yl]methyl}amine] was 192 to 193 °C; that for `C[C@]1(CN)COc2cccc(-c3ccccc3)c2O1` (as salt: fumarate) [Compound I-48, {[(2S)-2-Methyl-8-phenyl-2,3-dihydro-1,4-benzodioxin-2-yl]methyl}amine] was 130 to 133 °C.

The record behind these values is patent US20060241172A1, “Benzodioxane and benzodioxolane derivatives and uses thereof” (Wyeth, priority 2005, published 2006).
